Test results from patent US6740651B2, “Aminoquinazolines which inhibit signal transduction mediated by tyrosine kinases” (Boehringer Ingelheim Pharma KG, priority 2000, dated 2004).

Molecular target: T1, human EGF-R (Homo sapiens, UniProt P00533)
T1 construct: expressed in transfected cells; host or cells: F/L-HERc cells (murine IL-3-dependent FDC-P1 line transduced with LXSN retroviral vector carrying human EGF-R cDNA; packaging line GP+E86)
Assay: Inhibition of the EGF-dependent proliferation of F/L-HERc cells (Cell Titer 96 proliferation assay)
Assay type: cell-based
Settings: F/L-HERc cells (murine IL-3-dependent line expressing human EGF-R), stimulated with EGF 20 ng/ml, 48 hours at 37° C.
From the text: A cell line of murine origin dependent on interleukin-3-(IL-3) which was genetically modified to express functional human EGF-R was used here. The proliferation of these cells known as F/L-HERc can therefore be stimulated either by murine IL-3 or by EGF (cf. von Rüden, T. et al. in EMBO J. 7, 2749-2756 (1988) and Pierce, J. H. et al. in Science 239, 628-631 (1988)).
The starting material used for the F/L-HERc cells was the cell line FDC-P1, the production of which has been described by Dexter, T. M. et al. in J. Exp. Med. 152, 1036-1047 (1980). Alternatively, however, other growth-factor-dependent cells may also be used (cf. for example Pierce, J. H. et al. in Science 239, 628-631 (1988), Shibuya, H. et al. in Cell 70, 57-67 (1992) and Alexander, W. S. et al. in EMBO J. 10, 3683-3691 (1991)). […]
In order to determine the inhibitory activity of the compounds according to the invention the relative cell number was measured in O.D. units using the Cell Titer 96™ Aqueous Non-Radioactive Cell Proliferation Assay (Promega). […]

T1 sequence (P00533 25-1210): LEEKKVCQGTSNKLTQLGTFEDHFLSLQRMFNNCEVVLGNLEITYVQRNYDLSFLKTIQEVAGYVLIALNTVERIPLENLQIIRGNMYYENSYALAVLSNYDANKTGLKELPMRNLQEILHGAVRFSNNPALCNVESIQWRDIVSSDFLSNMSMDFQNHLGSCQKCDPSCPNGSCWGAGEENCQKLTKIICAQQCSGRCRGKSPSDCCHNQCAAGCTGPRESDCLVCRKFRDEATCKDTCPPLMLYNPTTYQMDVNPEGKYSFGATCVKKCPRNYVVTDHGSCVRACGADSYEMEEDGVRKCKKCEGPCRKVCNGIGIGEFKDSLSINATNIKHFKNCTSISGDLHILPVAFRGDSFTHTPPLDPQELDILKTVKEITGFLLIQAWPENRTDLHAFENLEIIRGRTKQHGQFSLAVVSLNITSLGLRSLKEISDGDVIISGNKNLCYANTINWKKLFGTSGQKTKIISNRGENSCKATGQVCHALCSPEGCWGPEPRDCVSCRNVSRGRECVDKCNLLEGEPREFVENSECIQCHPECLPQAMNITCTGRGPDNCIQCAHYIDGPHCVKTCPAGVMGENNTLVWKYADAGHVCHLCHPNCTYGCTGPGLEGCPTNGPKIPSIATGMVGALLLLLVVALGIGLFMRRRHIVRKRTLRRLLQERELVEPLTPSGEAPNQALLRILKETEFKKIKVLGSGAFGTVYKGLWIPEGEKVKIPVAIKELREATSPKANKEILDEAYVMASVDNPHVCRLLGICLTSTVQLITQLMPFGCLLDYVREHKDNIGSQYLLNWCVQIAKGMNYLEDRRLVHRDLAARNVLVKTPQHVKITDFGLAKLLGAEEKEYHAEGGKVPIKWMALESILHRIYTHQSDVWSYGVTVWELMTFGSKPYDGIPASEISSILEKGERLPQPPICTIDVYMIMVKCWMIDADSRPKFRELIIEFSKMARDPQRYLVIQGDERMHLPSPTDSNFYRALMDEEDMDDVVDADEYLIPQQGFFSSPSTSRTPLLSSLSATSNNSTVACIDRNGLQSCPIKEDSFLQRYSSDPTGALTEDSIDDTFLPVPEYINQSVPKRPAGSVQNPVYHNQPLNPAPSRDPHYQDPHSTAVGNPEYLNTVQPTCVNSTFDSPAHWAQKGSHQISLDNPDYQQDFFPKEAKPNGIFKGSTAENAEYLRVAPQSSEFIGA

In the case of COC[C@H]1CN(CC=CC(=O)Nc2cc3c(Nc4ccc(F)c(Cl)c4)ncnc3cc2OCC2CC2)CC(=O)O1 [Example 1, 4-[(3-chloro-4-fluoro-phenyl)amino]-6-{[4-((R)-2-methoxymethyl-6-oxo-morpholin-4-yl)-1-oxo-2-buten-1-yl]amino}-7-cyclopropylmethoxy-quinazoline], the IC50 is reported as 2 nM.
